{"source": "ChEMBL document CHEMBL1201862", "about": "“PubChem BioAssay data set” (2004)", "key": {"[1]": {"assay": "growth suppression of PTEN-null colon cells, dose response, cell-based, HCT116 PTEN knockout (AID 1047);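 also: HCT116 colon tumor cells with PTEN knocked out; cells exposed to compound for 60 hours before readout; potency for loss of cell viability measured by luminescence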", "assay_type": "functional"}, "[2]": {"assay": "growth suppression of beta-catenin-knockout colon cells, dose response, cell-based, HCT116, human colon tumor (AID 1045);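 also: HCT116 colon tumor cells with beta catenin knocked out; cells exposed to compound for 60 hours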", "assay_type": "functional"}, "[3]": {"target": "T1, Heat shock factor protein 1 (Mus musculus, UniProt P38532)", "T1 sequence (P38532 whole entry)": "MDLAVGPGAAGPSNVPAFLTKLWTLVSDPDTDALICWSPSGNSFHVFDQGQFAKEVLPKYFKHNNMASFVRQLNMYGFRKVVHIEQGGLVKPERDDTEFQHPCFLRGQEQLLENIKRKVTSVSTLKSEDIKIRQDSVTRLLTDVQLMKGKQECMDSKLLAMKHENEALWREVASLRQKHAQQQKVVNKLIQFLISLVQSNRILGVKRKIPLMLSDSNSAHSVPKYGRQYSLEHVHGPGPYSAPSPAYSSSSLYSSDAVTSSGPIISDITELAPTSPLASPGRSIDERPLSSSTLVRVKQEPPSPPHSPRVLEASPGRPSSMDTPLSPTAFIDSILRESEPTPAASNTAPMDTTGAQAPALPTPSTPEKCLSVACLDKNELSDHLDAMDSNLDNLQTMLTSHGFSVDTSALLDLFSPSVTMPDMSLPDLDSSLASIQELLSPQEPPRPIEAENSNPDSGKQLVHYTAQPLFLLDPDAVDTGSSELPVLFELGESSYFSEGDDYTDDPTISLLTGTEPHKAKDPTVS", "assay": "HSF1 potentiators in luciferase reporter cells, confirmation, cell-based, NIH3T3, luminescence, dose retest (AID 435004);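 also: stress induced by proteasome inhibitor MG132 added 30 min after compound; actives raise luminescence as potentiators of the MG132 stress response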", "assay_type": "functional"}, "ORF 73": {"target": "ORF 73 (Human herpesvirus 8, UniProt O40947)", "sequence (O40947 whole entry)": "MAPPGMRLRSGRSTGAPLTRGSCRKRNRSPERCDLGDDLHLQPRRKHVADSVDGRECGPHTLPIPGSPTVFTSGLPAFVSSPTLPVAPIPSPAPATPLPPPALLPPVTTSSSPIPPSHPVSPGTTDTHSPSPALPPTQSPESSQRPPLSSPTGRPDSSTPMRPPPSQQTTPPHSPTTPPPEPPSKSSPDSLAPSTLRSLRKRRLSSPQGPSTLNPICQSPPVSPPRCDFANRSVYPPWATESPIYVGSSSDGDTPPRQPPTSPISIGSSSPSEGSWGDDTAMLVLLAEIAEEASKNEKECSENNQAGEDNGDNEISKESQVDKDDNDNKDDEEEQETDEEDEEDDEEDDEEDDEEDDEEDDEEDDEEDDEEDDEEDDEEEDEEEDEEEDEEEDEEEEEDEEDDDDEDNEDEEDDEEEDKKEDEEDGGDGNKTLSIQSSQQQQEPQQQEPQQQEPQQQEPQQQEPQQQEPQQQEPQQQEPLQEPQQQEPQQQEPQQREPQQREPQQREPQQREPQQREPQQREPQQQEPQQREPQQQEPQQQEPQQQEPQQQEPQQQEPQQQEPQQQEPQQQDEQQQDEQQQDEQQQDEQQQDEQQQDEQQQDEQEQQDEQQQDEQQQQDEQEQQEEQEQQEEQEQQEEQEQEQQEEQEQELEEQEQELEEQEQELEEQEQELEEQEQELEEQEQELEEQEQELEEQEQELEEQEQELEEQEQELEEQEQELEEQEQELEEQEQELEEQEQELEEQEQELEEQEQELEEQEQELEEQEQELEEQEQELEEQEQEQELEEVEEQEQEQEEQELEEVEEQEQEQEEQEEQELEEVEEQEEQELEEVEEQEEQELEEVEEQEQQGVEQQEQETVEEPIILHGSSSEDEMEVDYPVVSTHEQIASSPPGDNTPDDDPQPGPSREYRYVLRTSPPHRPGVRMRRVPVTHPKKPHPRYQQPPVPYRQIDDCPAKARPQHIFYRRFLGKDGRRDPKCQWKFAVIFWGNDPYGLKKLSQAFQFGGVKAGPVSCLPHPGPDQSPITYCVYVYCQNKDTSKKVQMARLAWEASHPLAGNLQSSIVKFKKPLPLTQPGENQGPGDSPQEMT", "assay": "inhibitors of C-LANA binding to LBS DNA, dose response, biochemical, fluorescence polarization, cherry-picked samples (AID 504725);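 also: fluorescence polarization of a labeled DNA duplex reporting LANA DNA binding; potency is for inhibitors that block LANA binding to the DNA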", "design": "species or system Human gammaherpesvirus 8"}, "HeLa": {"test_system": "HeLa", "assay": "HeLa cell cytotoxicity, dose response, cytotoxicity control, 24 h, cherry-picked samples (AID 504726)", "assay_type": "functional, cell-based", "settings": "Homo sapiens"}, "Coagulation factor XII": {"target": "T2, Coagulation factor XII (Homo sapiens, UniProt P00748)", "T2 sequence (P00748 whole entry)": "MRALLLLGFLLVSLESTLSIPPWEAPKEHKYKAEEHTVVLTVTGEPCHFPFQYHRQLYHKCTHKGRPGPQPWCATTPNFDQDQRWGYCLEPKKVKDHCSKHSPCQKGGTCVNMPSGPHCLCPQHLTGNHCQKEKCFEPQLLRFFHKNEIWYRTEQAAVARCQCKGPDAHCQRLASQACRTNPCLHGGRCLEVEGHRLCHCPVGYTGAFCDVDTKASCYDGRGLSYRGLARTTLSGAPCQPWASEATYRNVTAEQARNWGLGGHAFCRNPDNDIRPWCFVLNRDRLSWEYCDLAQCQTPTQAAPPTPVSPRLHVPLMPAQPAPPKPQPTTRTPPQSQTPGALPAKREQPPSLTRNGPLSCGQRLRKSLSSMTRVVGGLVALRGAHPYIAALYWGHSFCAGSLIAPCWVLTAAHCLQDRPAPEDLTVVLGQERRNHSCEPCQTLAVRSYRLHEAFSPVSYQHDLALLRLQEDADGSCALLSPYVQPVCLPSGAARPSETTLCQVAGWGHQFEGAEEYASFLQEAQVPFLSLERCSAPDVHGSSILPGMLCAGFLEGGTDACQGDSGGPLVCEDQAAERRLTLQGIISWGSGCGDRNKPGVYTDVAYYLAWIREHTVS", "assay": "FXIIa inhibitor potency, concentration-response, biochemical (AID 716)", "assay_type": "functional"}, "[4]": {"assay": "Luminescence Cell-Based Dose Response HTS to Identify Inhibitors of 5'UTR Stem-Loop Driven Prion Protein mRNA Translation in H4 Neuroglioblastoma Cells. [Related pubchem assays: 1827 (Project Summary), 1813 (Primary HTS)]", "assay_type": "functional"}, "[5]": {"assay": "inhibitors of SNCA 5'UTR-driven reporter translation, confirmation, H4 neuroglioma cells, luminescence (AID 1988)", "assay_type": "functional, cell-based"}, "[6]": {"target": "G-protein coupled receptor 35 (Homo sapiens, UniProt Q9HC97)", "sequence (Q9HC97 whole entry)": "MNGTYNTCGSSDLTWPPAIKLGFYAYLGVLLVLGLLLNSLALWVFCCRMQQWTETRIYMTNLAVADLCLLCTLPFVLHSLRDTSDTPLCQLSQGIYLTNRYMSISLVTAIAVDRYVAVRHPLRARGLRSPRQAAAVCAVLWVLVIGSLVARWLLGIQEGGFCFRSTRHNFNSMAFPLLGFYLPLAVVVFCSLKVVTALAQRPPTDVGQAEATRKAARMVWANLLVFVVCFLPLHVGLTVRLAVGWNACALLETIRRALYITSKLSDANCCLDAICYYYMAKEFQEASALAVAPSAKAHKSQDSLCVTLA", "assay": "GPR35 antagonists blocking zaprinast-driven arrestin recruitment, primary screen, imaging, U2OS, beta-arrestin-GFP, zaprinast agonist (AID 2058);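 also: antagonist potency meaning inhibition of agonist-induced arrestin redistribution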", "assay_type": "functional"}, "[7]": {"target": "G-protein coupled receptor 55 (Homo sapiens, UniProt Q9Y2T6)", "sequence (Q9Y2T6 whole entry)": "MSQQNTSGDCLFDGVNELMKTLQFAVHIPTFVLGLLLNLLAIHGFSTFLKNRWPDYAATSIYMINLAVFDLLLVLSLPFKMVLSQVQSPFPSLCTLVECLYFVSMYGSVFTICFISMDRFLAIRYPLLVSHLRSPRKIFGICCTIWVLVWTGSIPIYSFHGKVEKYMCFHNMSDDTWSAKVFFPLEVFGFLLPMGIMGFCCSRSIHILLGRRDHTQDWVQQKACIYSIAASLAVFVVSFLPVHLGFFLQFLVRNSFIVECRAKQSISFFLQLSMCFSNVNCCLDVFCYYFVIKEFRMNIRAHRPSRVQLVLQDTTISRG", "assay": "GPR55 antagonists blocking LPI-driven arrestin recruitment, primary screen, imaging, U2OS, beta-arrestin-GFP, LPI agonist (AID 2013);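 also: antagonist potency measured as reduced agonist-driven arrestin aggregation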", "assay_type": "functional"}, "[8]": {"assay": "inhibitors of firefly luciferase expression or activity, dose response, H4 neuroglioma cells, luminescence (AID 1990)", "assay_type": "functional, cell-based"}, "[9]": {"target": "Induced myeloid leukemia cell differentiation protein Mcl-1 (Homo sapiens, UniProt Q07820)", "sequence (Q07820 whole entry)": "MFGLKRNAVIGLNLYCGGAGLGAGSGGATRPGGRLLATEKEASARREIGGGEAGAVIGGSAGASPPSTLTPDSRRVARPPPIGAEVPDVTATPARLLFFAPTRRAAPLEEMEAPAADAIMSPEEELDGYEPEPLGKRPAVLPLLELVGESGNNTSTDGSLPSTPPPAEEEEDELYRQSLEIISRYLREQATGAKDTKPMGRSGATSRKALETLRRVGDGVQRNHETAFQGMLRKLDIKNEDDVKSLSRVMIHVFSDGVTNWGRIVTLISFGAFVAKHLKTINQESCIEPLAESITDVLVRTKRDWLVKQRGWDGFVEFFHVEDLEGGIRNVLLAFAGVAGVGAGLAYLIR", "assay_type": "functional"}, "[10]": {"target": "Eukaryotic translation initiation factor 4E (Mus musculus, UniProt P63073)", "sequence (P63073 whole entry)": "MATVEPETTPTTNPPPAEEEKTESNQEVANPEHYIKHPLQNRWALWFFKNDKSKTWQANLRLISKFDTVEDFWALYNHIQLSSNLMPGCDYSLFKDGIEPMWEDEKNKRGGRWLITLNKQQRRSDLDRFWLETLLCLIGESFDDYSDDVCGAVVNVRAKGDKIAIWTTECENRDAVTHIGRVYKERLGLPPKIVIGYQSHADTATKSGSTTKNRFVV", "assay": "eIF4E–eIF4G protein interaction inhibitors, dose response, biochemical, TR-FRET (AID 855);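 also: potency for disrupting eIF4E binding to eIF4GI seen as loss of FRET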", "assay_type": "functional"}, "[11]": {"target": "T3, Tyrosine-protein phosphatase non-receptor type 7 (Homo sapiens, UniProt P35236)", "T3 sequence (P35236 whole entry)": "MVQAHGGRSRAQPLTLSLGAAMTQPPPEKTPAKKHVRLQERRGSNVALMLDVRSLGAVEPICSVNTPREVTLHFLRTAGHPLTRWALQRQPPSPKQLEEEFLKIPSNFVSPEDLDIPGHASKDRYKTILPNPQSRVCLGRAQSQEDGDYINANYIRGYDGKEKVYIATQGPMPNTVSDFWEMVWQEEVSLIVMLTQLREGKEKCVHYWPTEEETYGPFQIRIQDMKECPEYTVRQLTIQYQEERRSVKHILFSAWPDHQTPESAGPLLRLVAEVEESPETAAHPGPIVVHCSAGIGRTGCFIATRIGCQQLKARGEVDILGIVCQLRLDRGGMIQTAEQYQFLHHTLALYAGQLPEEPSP", "assay": "redox-dependent HePTP inhibition, mechanism study, biochemical, fluorescence (AID 2068)", "assay_type": "functional"}, "[12]": {"target": "T4, Glutathione-S-transferase (Schistosoma japonicum, UniProt Q26513)", "T4 sequence (Q26513 whole entry)": "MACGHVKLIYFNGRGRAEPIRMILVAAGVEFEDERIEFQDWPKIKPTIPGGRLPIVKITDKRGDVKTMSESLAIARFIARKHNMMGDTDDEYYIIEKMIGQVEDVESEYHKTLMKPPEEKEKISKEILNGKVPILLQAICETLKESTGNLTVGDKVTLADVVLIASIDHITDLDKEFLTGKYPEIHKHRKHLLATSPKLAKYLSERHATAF", "assay": "biotin-GST/anti-GST TR-FRET signal inhibitors, dose response, artefact control for Vif-APOBEC3G degradation inhibitor project, biochemical (AID 1117362)", "assay_type": "functional"}}, "note": "The source made the active and inactive calls.", "data": [{"compound": "O=C(Nc1ccccc1F)C(=Cc1sc(N2CCOCC2)nc1-c1ccccc1)C(=O)Nc1ccccc1F", "values": [{"measurement": "EC50", "setting": "[1]", "result": "11.9 µM (active)"}, {"measurement": "EC50", "setting": "[2]", "result": "9.63 µM (active)"}, {"measurement": "EC50", "setting": "[3]", "result": "> 260 µM (inactive)"}, {"measurement": "AC50", "setting": "ORF 73", "result": "16.4 µM (active)"}, {"measurement": "AC50", "setting": "HeLa", "result": "292 µM (active)"}]}, {"compound": "Cn1c(COc2ccc(Cl)cc2)nc2ccccc2c1=O", "values": [{"measurement": "IC50", "setting": "Coagulation factor XII", "result": "> 50 µM (inactive)"}]}, {"compound": "Oc1ccc(/C=N/Nc2nc(-c3ccccc3F)nc3ccccc23)c(O)c1", "values": [{"measurement": "EC50", "setting": "[4]", "result": "18.4 µM (active)"}, {"measurement": "EC50", "setting": "[5]", "result": "6.7 µM (active)"}, {"measurement": "IC50", "setting": "[6]", "result": "3.08 µM (active)"}, {"measurement": "IC50", "setting": "[7]", "result": "1.47 µM (active)"}, {"measurement": "EC50", "setting": "[8]", "result": "23.2 µM (active)"}]}, {"compound": "O=C(NCCO)Nc1ccc2nc(-c3ccco3)c(-c3ccco3)nc2c1", "values": [{"measurement": "IC50", "setting": "[9]", "result": "579 nM (active)"}, {"measurement": "IC50", "setting": "[10]", "result": "50 µM (inactive)"}, {"measurement": "IC50", "setting": "[11]", "result": "476 nM (active)"}, {"measurement": "IC50", "setting": "[12]", "result": "48.5 µM (active)"}]}]}
